# Experimental data from PubChem BioAssay AID449748 (Broad Institute, 2010).
# Results filed as inconclusive are left out.
# Tested on: cancer stem cell-like cells viability, luminescence
# Assay: PubChem AID 449748
structure (smiles),measurement,value
O=[N+]([O-])c1ccc(Cl)c([N+](=O)[O-])c1,AC50,4.77 µM
